This is an account of results in patent publication US20110190336A1, “AZABENZIMIDAZOLONES” (CARA THERAPEUTICS, INC., priority 2008, published 2011).

pIC50: −log10 of the molar value.

In the experiment the target is T1, human DP2 receptor (Homo sapiens, UniProt Q9Y5Y4).
T1 construct: expressed in transfected cells; host or cells: CHO-K1 FLP-In (Invitrogen, catalog no. R758-07), stably transfected
T1 sequence (Q9Y5Y4 1-395): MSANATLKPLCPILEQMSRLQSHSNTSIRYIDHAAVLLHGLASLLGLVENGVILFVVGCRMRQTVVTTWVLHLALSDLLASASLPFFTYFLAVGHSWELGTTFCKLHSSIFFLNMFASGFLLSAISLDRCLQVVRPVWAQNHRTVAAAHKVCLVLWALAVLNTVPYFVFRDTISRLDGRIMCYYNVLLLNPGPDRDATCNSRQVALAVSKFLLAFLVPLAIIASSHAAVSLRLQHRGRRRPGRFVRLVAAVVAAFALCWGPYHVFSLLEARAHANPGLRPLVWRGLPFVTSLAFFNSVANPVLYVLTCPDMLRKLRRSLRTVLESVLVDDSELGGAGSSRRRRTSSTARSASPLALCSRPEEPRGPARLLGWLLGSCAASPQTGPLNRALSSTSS
Put plainly: Prostaglandin D2 binding inhibition assay (scintillation proximity assay, 3H PGD2, membranes of transfected CHO cells). The note with it: SPA, 5.5 nM 3H PGD2, CHO-K1 FLP-In human DP2 membranes; upper limit determinable 30 μM; read-out: IC50 ranges for inhibition of PGD2 binding to human DP2. As for the experimental part:
The ability of compounds to inhibit binding of prostaglandin D2 (PGD2) to the human DP2 receptor was measured using a scintillation proximity assay (SPA). Chinese Hamster Ovary FLP-In cell lines (CHO-K1 FLP-In, Invitrogen, catalog no. R758-07) were stably transfected with the human DP2 gene (Genebank: AY507142). Cell lines were grown in suspension in EX-CELL 302 CHO Serum-free medium (Sigma, catalog no. 14324C) supplemented with 1% Fetal Bovine Serum (Invitrogen no. 10099-141), 2 mM L-glutamine (Invitrogen, catalog no. 25030-081) and 0.5 mg/ml Hygromycin B (Invitrogen, catalog no. 10687-010). Cells were collected by centrifugation in a Beckman Coulter Allegra X-12R centrifuge at 150×g for 5 minutes at room temperature.
Membranes from transfected cells were isolated for binding assays. Cell pellets containing approximately 2×10^9 cells were resuspended in 35 ml of cold membrane homogenization buffer (10 mM Tris (Sigma, catalog no. T2663), 1 mM EDTA (Fluka BioChemika no. 03690), and 70 μl of protease inhibitor cocktail (Sigma, catalog no. P8340)). Cells were homogenized with 30 strokes of a dounce homogenizer (Kontes, catalog no. 885303-0040), and the solution centrifuged at 200×g for 10 minutes. The supernatant was transferred to a 50 ml Oakridge tube (Beckman, catalog no. 357000) and centrifuged in a Beckman Coulter Avanti J-26×PI centrifuge with a JA30.50 rotor at 81,000×g for 1 hour at 15° C. The pellet was resuspended in membrane storage buffer (50 mM Tris (Sigma, catalog no. T2663), 2.5 mM EDTA (Fluka BioChemika no. 03690), 5 mM magnesium chloride (Sigma, catalog no. M1028), 100 mg/ml sucrose (Sigma, catalog no. 50389) and a 1:500 dilution of protease inhibitor cocktail (Sigma, catalog no. P8340)) and the total protein was quantitated using a BCA protein measurement kit (Pierce, catalog no. 23225). Aliquots were frozen at −80° C. until used. Compounds were tested for their ability to inhibit PGD2 binding to the purified membranes. 5 μg of the purified membranes, 0.25 mg of wheat germ agglutinin PVT SPA beads (GE Healthcare, catalog no. RPNQ0060) and 5.5 nM of ^3H PGD2 (PerkinElmer, catalog no. NET-616) were mixed in assay buffer ((50 mM Tris (Sigma, catalog no. T2663), 10 mM magnesium chloride (Sigma, catalog no. M1028), 100 mM sodium chloride (Sigma, catalog no. S6546) and 0.1% bovine serum albumin (Sigma, catalog no. A2153)). Using a Multidrop bulk dispenser, 75 μl of the assay mixture was dispensed in Optiplates (PerkinElmer, catalog no. 6007299) containing the compounds to be tested. After a 60 minute incubation period at room temperature, the plates were read on a PerkinElmer Topcount NXT HTS, and individual wells were quantitated as counts per minute (CPM). Data were expressed as a percent of the difference between the maximum and minimum responses. IC50 values (the concentration of compound producing 50% of the maximal response) were determined using a two-parameter non-linear regression algorithm analyzed using CambridgeSoft Bioassay software. Table 2 gives the range of IC50 values for claimed compounds in the binding assay.
Background: SPA uses beads or plates that emit light when radiolabelled molecules are held near them.
Take `O=C(O)Cn1c(=O)n(C2CCN(S(=O)(=O)c3ccc(OC(F)(F)F)cc3)CC2)c2ncccc21` [Compound 42, 2-(2-oxo-3-(1-(4-(trifluoromethoxy)phenylsulfonyl)piperidin-4-yl)-2,3-dihydro-1H-imidazo[4,5-b]pyridin-1-yl)acetic acid]: the pIC50 – broadly, the negative decadic logarithm of the IC50, by convention in mol/L – is 5.00 to 6.00. Regarding `CCS(=O)(=O)N1CCC(n2c(=O)n(CC(=O)O)c3cccnc32)CC1` [Compound 43, 2-(3-(1-(ethylsulfonyl)piperidin-4-yl)-2-oxo-2,3-dihydro-1H-imidazo[4,5-b]pyridin-1-yl)acetic acid], the pIC50 is 4.52 to 5.00. Take `CCCS(=O)(=O)N1CCC(n2c(=O)n(CC(=O)O)c3cccnc32)CC1` [Compound 44, 2-(2-oxo-3-(1-(propylsulfonyl)piperidin-4-yl)-2,3-dihydro-1H-imidazo[4,5-b]pyridin-1-yl)acetic acid]: the pIC50 was 5.00 to 6.00. With `O=C(O)Cn1c(=O)n(C2CCN(S(=O)(=O)c3cccc(OC(F)(F)F)c3)CC2)c2ncccc21` [Compound 45, 2-(2-oxo-3-(1-(3-(trifluoromethoxy)phenylsulfonyl)piperidin-4-yl)-2,3-dihydro-1H-imidazo[4,5-b]pyridin-1-yl)acetic acid], the pIC50 was 5.00 to 6.00. In the case of `Cc1ccc(S(=O)(=O)N2CCC(n3c(=O)n(CC(=O)O)c4cccnc43)CC2)cc1` [Compound 46, 2-(2-oxo-3-(1-(p-tolylsulfonyl)piperidin-4-yl)-2,3-dihydro-1H-imidazo[4,5-b]pyridin-1-yl)acetic acid], the negative logarithm of the IC50 (pIC50) was 5.00 to 6.00. For `COc1ccc(S(=O)(=O)N2CCC(n3c(=O)n(CC(=O)O)c4cccnc43)CC2)cc1OC` [Compound 47, 2-(3-(1-(3,4-dimethoxyphenyl-sulfonyl)piperidin-4-yl)-2-oxo-2,3-dihydro-1H-imidazo[4,5-b]pyridin-1-yl)acetic acid], the negative-log IC50 (pIC50) was 4.52 to 5.00.

For the compound `CC(C)CS(=O)(=O)N1CCC(n2c(=O)n(CC(=O)O)c3cccnc32)CC1` [Compound 48, 2-(3-(1-(isobutylsulfonyl)piperidin-4-yl)-2-oxo-2,3-dihydro-1H-imidazo[4,5-b]pyridin-1-yl)acetic acid], the pIC50 was 5.00 to 6.00. For `O=C(O)Cn1c(=O)n(C2CCN(S(=O)(=O)c3cccc4cccnc34)CC2)c2ncccc21` [Compound 49, 2-(2-oxo-3-(1-(quinolin-8-ylsulfonyl)piperidin-4-yl)-2,3-dihydro-1H-imidazo[4,5-b]pyridin-1-yl)acetic acid], the negative-log IC50 (pIC50) is more than 6.00. In the case of `Cc1cc(C)c(S(=O)(=O)N2CCC(n3c(=O)n(CC(=O)O)c4cccnc43)CC2)c(C)c1` [Compound 50, 2-(3-(1-(mesitylsulfonyl)piperidin-4-yl)-2-oxo-2,3-dihydro-1H-imidazo[4,5-b]pyridin-1-yl)acetic acid], the pIC50 is 5.00 to 6.00.

With `O=C(O)Cn1c(=O)n(C2CCN(S(=O)(=O)c3ccc(F)cc3Cl)CC2)c2ncccc21` [Compound 51, 2-(3-(1-(2-chloro-4-fluorophenyl-sulfonyl)piperidin-4-yl)-2-oxo-2,3-dihydro-1H-imidazo[4,5-b]pyridin-1-yl)acetic acid], the pIC50 is more than 6.00. `CC(C)S(=O)(=O)N1CCC(n2c(=O)n(CC(=O)O)c3cccnc32)CC1` [Compound 52, 2-(3-(1-(isopropylsulfonyl)piperidin-4-yl)-2-oxo-2,3-dihydro-1H-imidazo[4,5-b]pyridin-1-yl)acetic acid]: the pIC50 was 5.00 to 6.00. For `Cc1ccc(S(=O)(=O)N2CCC(n3c(=O)n(CC(=O)O)c4cccnc43)CC2)s1` [Compound 53, 2-(3-(1-(5-methylthiophen-2-ylsulfonyl)piperidin-4-yl)-2-oxo-2,3-dihydro-1H-imidazo[4,5-b]pyridin-1-yl)acetic acid] the value was 5.00 to 6.00; for `Cc1noc(C)c1S(=O)(=O)N1CCC(n2c(=O)n(CC(=O)O)c3cccnc32)CC1` [Compound 54, 2-(3-(1-(3,5-dimethylisoxazol-4-ylsulfonyl)piperidin-4-yl)-2-oxo-2,3-dihydro-1H-imidazo[4,5-b]pyridin-1-yl)acetic acid], less than 4.52; for `O=C(O)Cn1c(=O)n(C2CCN(S(=O)(=O)c3ccc(F)cc3)CC2)c2ncccc21` [Compound 55, 2-(3-(1-(4-fluorophenylsulfonyl)piperidin-4-yl)-2-oxo-2,3-dihydro-1H-imidazo[4,5-b]pyridin-1-yl)acetic acid], 5.00 to 6.00. On to `Cc1ccc(CS(=O)(=O)N2CCC(n3c(=O)n(CC(=O)O)c4cccnc43)CC2)cc1` [Compound 56, 2-(3-(1-(4-methylbenzylsulfonyl)piperidin-4-yl)-2-oxo-2,3-dihydro-1H-imidazo[4,5-b]pyridin-1-yl)acetic acid], for which the pIC50 is 4.52 to 5.00. On to `O=C(O)Cn1c(=O)n(C2CCN(S(=O)(=O)c3ccc(Cl)cc3)CC2)c2ncccc21` [Compound 57, 2-(3-(1-(4-chlorophenylsulfonyl)piperidin-4-yl)-2-oxo-2,3-dihydro-1H-imidazo[4,5-b]pyridin-1-yl)acetic acid], for which the pIC50 was 5.00 to 6.00. `O=C(O)Cn1c(=O)n(C2CCN(S(=O)(=O)c3ccccc3Cl)CC2)c2ncccc21` [Compound 58, 2-(3-(1-(2-chlorophenylsulfonyl)piperidin-4-yl)-2-oxo-2,3-dihydro-1H-imidazo[4,5-b]pyridin-1-yl)acetic acid]: the negative-log IC50 (pIC50) is more than 6.00. For `O=C(O)Cn1c(=O)n(C2CCN(S(=O)(=O)c3ccc4ccccc4c3)CC2)c2ncccc21` [Compound 59, 2-(3-(1-(naphthalen-2-ylsulfonyl)piperidin-4-yl)-2-oxo-2,3-dihydro-1H-imidazo[4,5-b]pyridin-1-yl)acetic acid] the value was 5.00 to 6.00; for `O=C(O)Cn1c(=O)n(C2CCN(S(=O)(=O)c3ccsc3)CC2)c2ncccc21` [Compound 60, 2-(2-oxo-3-(1-(thiophen-3-ylsulfonyl)piperidin-4-yl)-2,3-dihydro-1H-imidazo[4,5-b]pyridin-1-yl)acetic acid], 5.00 to 6.00; for `N#Cc1ccc(S(=O)(=O)N2CCC(n3c(=O)n(CC(=O)O)c4cccnc43)CC2)cc1` [Compound 61, 2-(3-(1-(4-cyanophenylsulfonyl)piperidin-4-yl)-2-oxo-2,3-dihydro-1H-imidazo[4,5-b]pyridin-1-yl)acetic acid], 5.00 to 6.00. For `Cc1cccc(CS(=O)(=O)N2CCC(n3c(=O)n(CC(=O)O)c4cccnc43)CC2)c1` [Compound 62, 2-(3-(1-(3-methylbenzylsulfonyl)piperidin-4-yl)-2-oxo-2,3-dihydro-1H-imidazo[4,5-b]pyridin-1-yl)acetic acid] the value was 5.00 to 6.00; for `O=C(O)Cn1c(=O)n(C2CCN(S(=O)(=O)Cc3ccc(F)cc3)CC2)c2ncccc21` [Compound 64, 2-(3-(1-(4-fluorobenzylsulfonyl)piperidin-4-yl)-2-oxo-2,3-dihydro-1H-imidazo[4,5-b]pyridin-1-yl)acetic acid], more than 6.00. On to `CC(C)(C)c1ccc(S(=O)(=O)N2CCC(n3c(=O)n(CC(=O)O)c4cccnc43)CC2)cc1` [Compound 65, 2-(3-(1-(4-tert-butylphenylsulfonyl)piperidin-4-yl)-2-oxo-2,3-dihydro-1H-imidazo[4,5-b]pyridin-1-yl)acetic acid], for which the negative logarithm of the IC50 (pIC50) is 5.00 to 6.00.
